# Results taken from ChEMBL document CHEMBL4229507, “Identification of influenza PA-Nter endonuclease inhibitors using pharmacophore- and docking-based virtual screening” (Bioorg Med Chem, 2018).
# How the values were obtained:
# [1] = test system: unidentified influenza virus; experiment: Antiviral activity against Influenza virus assessed as inhibition of viral transcription
# Influenza A virus = experiment: Antiviral activity against Influenza A virus (A/Puerto Rico/8/1934(H1N1)) infected in MDCK cells after 24 hrs by immunofocus assay; assay type: functional, organism-based
# [2] = target: Polymerase acidic protein (Influenza A virus (strain A/X-31 H3N2), UniProt Q9IQ47); experiment: (§1) Inhibition of recombinant Influenza A virus (A/X-31(H3N2)) N-terminal 6xHis-tagged PA-Nter (1 to 217 residues) expressed in Escherichia coli BL21-CodonPlus cells using M13mp18 as substrate after 1 hr by ethidium bromide staining-based agarose gel electrophoresis
# [3] = target: Polymerase acidic protein (Influenza A virus (strain A/X-31 H3N2)) (UniProt Q9IQ47); experiment: as §1
Compound,IC50 [2] [µM],also measured
O=C(O)/C(O)=C/C(=O)C1(Cc2ccc(Cl)cc2)CCN(Cc2ccccc2)CC1,,IC50 [1]: 0.43 µM
O=c1[nH]c(-c2ccc(F)cc2)c(-c2ccc(-c3nnn[nH]3)cc2)cc1O,,EC50 (Influenza A virus): 11.4 µM
O=C(O)C(=O)CC(=O)c1ccccc1,3.2,
NS(=O)(=O)c1ccc(C(=O)NCCc2ccc(O)c(O)c2)cc1,12,inhibition [3]: Dose-dependent effect
O=C(CCN1CCC(Cc2ccc(F)cc2)CC1)c1c[nH]c2cc(O)c(O)cc12,243,
O=C(C(=O)N1CCC(Cc2ccccc2)CC1)c1c[nH]c2cc(O)c(O)cc12,266,
